Row | Structure (SMILES) | melting point
1 | COc1cccc(C(CCCCS(C)(=O)=O)S(=O)(=O)c2ccc(Cl)cc2)c1 (stereo not drawn) [Example 83, 1-[1-(4-Chlorophenylsulfonyl)-5-(methylsulfonyl)pentyl]-3-methoxybenzene] | 91 to 93 °C
2 | COc1ccc(C(CCCCS(C)(=O)=O)S(=O)(=O)c2ccc(Cl)cc2)cc1 (stereo not drawn) [Example 85, 1-[1-(4-Chlorophenylsulfonyl)-5-(methylsulfonyl)pentyl]-4-methoxybenzene] | 136 to 138 °C
3 | CS(=O)(=O)CCCCC(C1CCCCC1)S(=O)(=O)c1ccc(Cl)cc1 (stereo not drawn) [Example 95, 1-Chloro-4-[1-cyclohexyl-5-(methylsulfonyl)pentylsulfonyl]benzene] | 104 to 106 °C
4 | CS(=O)(=O)CCCCC(Cc1ccccc1)S(=O)(=O)c1ccc(Cl)cc1 (stereo not drawn) [Example 97, 4-[1-Benzyl-5-(methylsulfonyl)pentylsulfonyl]-1-chlorobenzene] | 68 to 70 °C
5 | CS(=O)(=O)CCCCC(c1cnccc1Cl)S(=O)(=O)c1ccc(Cl)cc1 (stereo not drawn) [Example 105, 4-Chloro-3-[1-[(4-chlorophenyl)sulfonyl]-5-(methylsulfonyl)pentyl]pyridine] | 156 to 157 °C
6 | O=S(=O)(c1ccc(Cl)cc1)C1(c2cccnc2Cl)CCCCCC1 [Example 108, 2-Chloro-3-[1-(4-chlorophenylsulfonyl)cycloheptyl]pyridine] | 168 to 169 °C
7 | O=S(=O)(c1ccc(Cl)cc1)C1(c2cccnc2Cl)CCCCC1 [Example 109, 2-Chloro-3-[1-(4-chlorophenylsulfonyl)cyclohexyl]pyridine] | 129 to 131 °C
8 | O=S(=O)(c1ccc(Cl)cc1)C1(c2cnccc2Cl)CCCCC1 [Example 110, 4-Chloro-3-[1-(4-chlorophenylsulfonyl)cyclohexyl]pyridine] | 145 to 147 °C
9 | CS(=O)(=O)CCCCC(c1cscn1)S(=O)(=O)c1ccc(Cl)cc1 (stereo not drawn) [Example 112, 4-[1-(4-Chlorophenylsulfonyl)-5-(methylsulfonyl)pentyl]thiazole] | 123 to 125 °C
10 | CS(=O)(=O)CCCCC(c1cncs1)S(=O)(=O)c1ccc(Cl)cc1 (stereo not drawn) [Example 114, 5-[1-[(4-Chlorophenyl)sulfonyl]-5-(methylsulfonyl)pentyl]thiazole] | 95 to 96 °C
11 | CS(=O)(=O)CCCCC(c1nccs1)S(=O)(=O)c1ccc(Cl)cc1 (stereo not drawn) [Example 116, 2-[1-[(4-Chlorophenyl)sulfonyl]-5-(methylsulfonyl)pentyl]thiazole] | 118 to 119 °C
12 | CS(=O)(=O)CCCCC(c1cnco1)S(=O)(=O)c1ccc(Cl)cc1 (stereo not drawn) [Example 118, 5-[1-(4-Chlorophenylsulfonyl)-5-(methylsulfonyl)pentyl]oxazole] | 164 to 166 °C
13 | CCCCC(c1ccncc1)S(=O)(=O)c1ccc(Cl)cc1 (stereo not drawn) [Example 120, 4-[1-(4-Chlorophenylsulfonyl)pentyl]pyridine] | 109 to 111 °C
14 | O=S(=O)(c1ccc(Cl)cc1)C(c1ccncc1)C1CCCC1 (stereo not drawn) [Example 121, 4-[(4-Chlorophenylsulfonyl)(cyclopentyl)methyl]pyridine] | 133 to 135 °C
15 | O=S(=O)(c1ccc(Cl)cc1)C(c1ccncc1)C1CCOCC1 (stereo not drawn) [Example 122, 4-[(4-Chlorophenylsulfonyl)(tetrahydropyran-4-yl)methyl]pyridine] | 208 to 209 °C
16 | CN1CCC(C(c2ccncc2)S(=O)(=O)c2ccc(Cl)cc2)CC1 (stereo not drawn) [Example 124, 4-[(4-Chlorophenylsulfonyl)(1-methylpiperidin-4-yl)methyl]pyridine] | 176 to 177 °C
17 | CN(C)CCCC(c1ccncc1)S(=O)(=O)c1ccc(Cl)cc1 (stereo not drawn) [Example 125, 4-(4-Chlorophenylsulfonyl)-N,N-dimethyl-4-(pyridin-4-yl)butylamine] | 78 to 80 °C
18 | CN(C)CCC(c1ccncc1)S(=O)(=O)c1ccc(Cl)cc1 (stereo not drawn) [Example 126, 3-(4-Chlorophenylsulfonyl)-N,N-dimethyl-3-(pyridin-4-yl)propylamine] | 91 to 92 °C
